Species: Rattus norvegicus
Experiment: Open TG-GATES - Regimen: Daily Repeat
Assay type: toxicity, organism-based, Sprague-Dawley
Parameters: regimen Daily Repeat, gender Male, age 6 weeks
Details: in vivo, po, 250 mg/kg, route gavage, dose level Middle; for APTT / Bas / Eos / Fbg / Hb / Ht / Lym / MCH / MCHC / MCV / Mono / Neu / PT / Plat / RBC / Ret / WBC: tissue Blood; for KIDNEY_L / KIDNEY_R / KIDNEY_TOTAL: tissue Kidney; for LIVER: tissue Liver; for A/G / ALP / ALT / AST / BUN / CRE / Ca / Cl / DBIL / GLC / IP / K / LDH / Na / PL / RALB / TBIL / TC / TG / TP / gamma-GTP: tissue Plasma

`CN(C/C=C/C#CC(C)(C)C)Cc1cccc2ccccc12` [TERBINAFINE] showed a TERMINAL_BW (72 h, time 3 day) of 237.2 g, an APTT (72 h, time 3 day) of 17.7 s and a Bas (72 h, time 3 day) of 1%. For the same compound, the Eos (72 h, time 3 day) was 1%, the Fbg (72 h, time 3 day) was 223.6 mg/dL and the Hb (72 h, time 3 day) was 13.6 g/dL. The Ht (72 h, time 3 day) was 40.4%, the Lym (72 h, time 3 day) was 77.2% and the MCH (72 h, time 3 day) was 21.7 pg. The MCHC (72 h, time 3 day) was 33.7%, the MCV (72 h, time 3 day) was 64.4 fL and the Mono (72 h, time 3 day) was 3.4%. It also gave a Neu (72 h, time 3 day) of 18%, a PT (72 h, time 3 day) of 11.6 s and a Plat (72 h, time 3 day) of 122 x10_4/uL. It also gave an RBC (72 h, time 3 day) of 628.6 x10_4/ul, a Ret (72 h, time 3 day) of 5.9% and a WBC (72 h, time 3 day) of 115.2 x10_2/uL. It also gave a KIDNEY_L (72 h, time 3 day) of 1.1 g, a KIDNEY_R (72 h, time 3 day) of 1.1 g and a KIDNEY_TOTAL (72 h, time 3 day) of 2.2 g. The LIVER (72 h, time 3 day) was 12.2 g, the A/G (72 h, time 3 day) was 1.7 and the ALP (72 h, time 3 day) was 954.4 IU/L. It also gave an ALT (72 h, time 3 day) of 39.8 IU/L, an AST (72 h, time 3 day) of 71.4 IU/L and a BUN (72 h, time 3 day) of 14.8 mg/dL. The CRE (72 h, time 3 day) was 0.4 mg/dL, the Ca (72 h, time 3 day) was 10.5 mg/dL and the Cl (72 h, time 3 day) was 103 meq/L. The DBIL (72 h, time 3 day) was 0.078 mg/dL, the GLC (72 h, time 3 day) was 189 mg/dL and the IP (72 h, time 3 day) was 7.5 mg/dL. For the same compound, the K (72 h, time 3 day) was 4 meq/L, the LDH (72 h, time 3 day) was 197 IU/L and the Na (72 h, time 3 day) was 141.4 meq/L. For the same compound, the PL (72 h, time 3 day) was 141.2 mg/dL, the RALB (72 h, time 3 day) was 3.5 g/dL and the TBIL (72 h, time 3 day) was 0.1 mg/dL. For the same compound, the TC (72 h, time 3 day) was 78.6 mg/dL, the TG (72 h, time 3 day) was 65.6 mg/dL and the TP (72 h, time 3 day) was 5.5 g/dL. For the same compound, the gamma-GTP (72 h, time 3 day) was 1.4 IU/L, the TERMINAL_BW ([…], time 7 day) was 268.6 g and the TERMINAL_BW ([…], time 14 day) was 323.9 g. It also gave a TERMINAL_BW ([…], time 28 day) of 411.4 g, an APTT ([…], time 7 day) of 21.6 s and a Bas ([…], time 7 day) of 1%. For the same compound, the Eos ([…], time 7 day) was 0.6%, the Fbg ([…], time 7 day) was 206 mg/dL and the Hb ([…], time 7 day) was 13.7 g/dL. For the same compound, the Ht ([…], time 7 day) was 39.7%, the Lym ([…], time 7 day) was 81.6% and the MCH ([…], time 7 day) was 20.8 pg. For the same compound, the MCHC ([…], time 7 day) was 34.6%, the MCV ([…], time 7 day) was 60.2 fL and the Mono ([…], time 7 day) was 2.4%. It also gave a Neu ([…], time 7 day) of 13.8%, a PT ([…], time 7 day) of 12.2 s and a Plat ([…], time 7 day) of 134.5 x10_4/uL. For the same compound, the RBC ([…], time 7 day) was 660 x10_4/ul, the Ret ([…], time 7 day) was 4.1% and the WBC ([…], time 7 day) was 128 x10_2/uL. It also gave an APTT ([…], time 14 day) of 19.5 s, a Bas ([…], time 14 day) of 1% and an Eos ([…], time 14 day) of 1%. It also gave a Fbg ([…], time 14 day) of 219.6 mg/dL, a Hb ([…], time 14 day) of 14.1 g/dL and a Ht ([…], time 14 day) of 41.7%. For the same compound, the Lym ([…], time 14 day) was 82.4%, the MCH ([…], time 14 day) was 19.9 pg and the MCHC ([…], time 14 day) was 33.8%. It also gave an MCV ([…], time 14 day) of 58.8 fL, a Mono ([…], time 14 day) of 2.8% and a Neu ([…], time 14 day) of 13%. It also gave a PT ([…], time 14 day) of 11.6 s, a Plat ([…], time 14 day) of 124.9 x10_4/uL and an RBC ([…], time 14 day) of 710 x10_4/ul. The Ret ([…], time 14 day) was 4.3%, the WBC ([…], time 14 day) was 135.6 x10_2/uL and the APTT ([…], time 28 day) was 22 s. For the same compound, the Bas ([…], time 28 day) was 1%, the Eos ([…], time 28 day) was 1.2% and the Fbg ([…], time 28 day) was 223.8 mg/dL. The Hb ([…], time 28 day) was 14.5 g/dL, the Ht ([…], time 28 day) was 41.4% and the Lym ([…], time 28 day) was 81%. For the same compound, the MCH ([…], time 28 day) was 20 pg, the MCHC ([…], time 28 day) was 35% and the MCV ([…], time 28 day) was 57.1 fL. The Mono ([…], time 28 day) was 2.2%, the Neu ([…], time 28 day) was 14.8% and the PT ([…], time 28 day) was 12.2 s. It also gave a Plat ([…], time 28 day) of 121.1 x10_4/uL, an RBC ([…], time 28 day) of 725.4 x10_4/ul and a Ret ([…], time 28 day) of 3.1%. For the same compound, the WBC ([…], time 28 day) was 136.2 x10_2/uL, the KIDNEY_L ([…], time 7 day) was 1.3 g and the KIDNEY_R ([…], time 7 day) was 1.2 g. It also gave a KIDNEY_TOTAL ([…], time 7 day) of 2.5 g, a KIDNEY_L ([…], time 14 day) of 1.4 g and a KIDNEY_R ([…], time 14 day) of 1.4 g. It also gave a KIDNEY_TOTAL ([…], time 14 day) of 2.8 g, a KIDNEY_L ([…], time 28 day) of 1.7 g and a KIDNEY_R ([…], time 28 day) of 1.7 g. The KIDNEY_TOTAL ([…], time 28 day) was 3.4 g, the LIVER ([…], time 7 day) was 13.7 g and the LIVER ([…], time 14 day) was 16.3 g. For the same compound, the LIVER ([…], time 28 day) was 20.2 g, the A/G ([…], time 7 day) was 1.6 and the ALP ([…], time 7 day) was 738.6 IU/L. The ALT ([…], time 7 day) was 37.6 IU/L, the AST ([…], time 7 day) was 70.4 IU/L and the BUN ([…], time 7 day) was 13.6 mg/dL. For the same compound, the CRE ([…], time 7 day) was 0.4 mg/dL, the Ca ([…], time 7 day) was 10.4 mg/dL and the Cl ([…], time 7 day) was 103.6 meq/L. It also gave a DBIL ([…], time 7 day) of 0.07 mg/dL, a GLC ([…], time 7 day) of 192 mg/dL and an IP ([…], time 7 day) of 7.4 mg/dL. The K ([…], time 7 day) was 4 meq/L, the LDH ([…], time 7 day) was 188.8 IU/L and the Na ([…], time 7 day) was 142.6 meq/L. For the same compound, the PL ([…], time 7 day) was 123.6 mg/dL, the RALB ([…], time 7 day) was 3.6 g/dL and the TBIL ([…], time 7 day) was 0.1 mg/dL. The TC ([…], time 7 day) was 65.2 mg/dL, the TG ([…], time 7 day) was 53.8 mg/dL and the TP ([…], time 7 day) was 5.8 g/dL. It also gave a gamma-GTP ([…], time 7 day) of 1 IU/L, an A/G ([…], time 14 day) of 1.5 and an ALP ([…], time 14 day) of 690 IU/L. For the same compound, the ALT ([…], time 14 day) was 34 IU/L, the AST ([…], time 14 day) was 62.8 IU/L and the BUN ([…], time 14 day) was 14.2 mg/dL. The CRE ([…], time 14 day) was 0.4 mg/dL, the Ca ([…], time 14 day) was 10.6 mg/dL and the Cl ([…], time 14 day) was 103.6 meq/L. For the same compound, the DBIL ([…], time 14 day) was 0.088 mg/dL, the GLC ([…], time 14 day) was 196.4 mg/dL and the IP ([…], time 14 day) was 8 mg/dL. For the same compound, the K ([…], time 14 day) was 3.8 meq/L, the LDH ([…], time 14 day) was 155.2 IU/L and the Na ([…], time 14 day) was 142.2 meq/L. It also gave a PL ([…], time 14 day) of 128 mg/dL, an RALB ([…], time 14 day) of 3.6 g/dL and a TBIL ([…], time 14 day) of 0.1 mg/dL. The TC ([…], time 14 day) was 68 mg/dL, the TG ([…], time 14 day) was 79.8 mg/dL and the TP ([…], time 14 day) was 5.9 g/dL. It also gave a gamma-GTP ([…], time 14 day) of 1 IU/L, an A/G ([…], time 28 day) of 1.3 and an ALP ([…], time 28 day) of 565.8 IU/L. It also gave an ALT ([…], time 28 day) of 34 IU/L, an AST ([…], time 28 day) of 61.2 IU/L and a BUN ([…], time 28 day) of 18.2 mg/dL. It also gave a CRE ([…], time 28 day) of 0.5 mg/dL, a Ca ([…], time 28 day) of 10.4 mg/dL and a Cl ([…], time 28 day) of 103.6 meq/L. For the same compound, the DBIL ([…], time 28 day) was 0.088 mg/dL, the GLC ([…], time 28 day) was 229.6 mg/dL and the IP ([…], time 28 day) was 7.1 mg/dL. For the same compound, the K ([…], time 28 day) was 4 meq/L, the LDH ([…], time 28 day) was 167.4 IU/L and the Na ([…], time 28 day) was 141.4 meq/L. It also gave a PL ([…], time 28 day) of 134 mg/dL, an RALB ([…], time 28 day) of 3.5 g/dL and a TBIL ([…], time 28 day) of 0.2 mg/dL. The TC ([…], time 28 day) was 72 mg/dL, the TG ([…], time 28 day) was 69.4 mg/dL and the TP ([…], time 28 day) was 6.1 g/dL. For the same compound, the gamma-GTP ([…], time 28 day) was 1.4 IU/L.
